ChEMBL document CHEMBL3526157, “Unique metabolic pathway of [(14)C]lenvatinib after oral administration to male cynomolgus monkey” (Drug Metab Dispos, 2012)
Blank lines part the entries; values can stand above or below the compound they belong to.

Legend:
Cynomolgus monkey [1] = assay: Drug retention time in cynomolgus monkey treated with 30 mg/kg, po of [14C]lenvatinib administered on day 1, 2 and 4 by radio-LC/MS analysis; format: ADME, organism-based, Macaca fascicularis; design: dose 30 mg/kg, route oral; conditions: in vivo
Cynomolgus monkey [2] = assay: Drug metabolism in cynomolgus monkey treated with 30 mg/kg, po of [14C]lenvatinib administered on day 1, 2 and 4 by radio-LC/MS analysis; format: ADME, organism-based, Macaca fascicularis; design: dose 30 mg/kg, route oral; conditions: in vivo
[3] = Drug metabolism in cynomolgus monkey liver S9 fraction assessed as 5-(3-(6-carbamoyl-7-methoxyquinolin-4-ylthio)-1-(carboxymethylamino)-1-oxopropan-2-ylamino)-[…]-5-oxopentanoic acid level at 50 uM up to 120 mins by HPLC analysis in presence of GSH and NADPH; format: ADME, subcellular, Macaca fascicularis; conditions: s9, 2 h
[4] = Drug metabolism in cynomolgus monkey liver S9 fraction assessed as 5-(3-(6-carbamoyl-7-methoxyquinolin-4-ylthio)-1-(carboxymethylamino)-1-oxopropan-2-ylamino)-[…]-5-oxopentanoic acid level at 50 uM up to 120 mins by HPLC analysis in presence of GSH and absence of NADPH; format: ADME, Macaca fascicularis; conditions: s9, 2 h
[5] = Drug metabolism in potassium phosphate buffer at pH 7.4 assessed as decrease of parent compound at 50 uM in presence of cysteine; format: physicochemical; conditions: pH 7.4, 50 µM
[6] = Drug metabolism in cynomolgus monkey liver S9 fraction assessed as decrease of parent compound level at 50 uM up to 120 mins by HPLC analysis in presence of GSH and absence of NADPH; format: ADME, tissue-based, Macaca fascicularis; conditions: s9, 2 h, TDE = time-dependent effect
[7] = Drug metabolism in human liver S9 fraction assessed as 5-(3-(6-carbamoyl-7-methoxyquinolin-4-ylthio)-1-(carboxymethylamino)-1-oxopropan-2-ylamino)-[…]-5-oxopentanoic acid level at 50 uM up to 120 mins by HPLC analysis in presence of GSH and NADPH; format: ADME, subcellular; conditions: s9, 2 h
[8] = Drug metabolism in human liver S9 fraction assessed as 5-(3-(6-carbamoyl-7-methoxyquinolin-4-ylthio)-1-(carboxymethylamino)-1-oxopropan-2-ylamino)-[…]-5-oxopentanoic acid level at 50 uM up to 120 mins by HPLC analysis in presence of GSH and absence of NADPH; format: ADME, tissue-based; conditions: s9, 2 h
[9] = Drug metabolism in potassium phosphate buffer at pH 7.4 assessed as decrease of parent compound at 50 uM in presence of GSH; format: physicochemical; conditions: pH 7.4, 50 µM
[10] = Drug metabolism in Sprague-Dawley rat liver S9 fraction assessed as 5-(3-(6-carbamoyl-7-methoxyquinolin-4-ylthio)-1-(carboxymethylamino)-1-oxopropan-2-ylamino)-[…]-5-oxopentanoic acid level at 50 uM up to 60 mins by HPLC analysis in presence of GSH and absence of NADPH; conditions: s9, 1 h
[11] = Drug metabolism in cynomolgus monkey liver S9 fraction assessed as decrease of parent compound level at 50 uM up to 120 mins by HPLC analysis in presence of GSH and NADPH; format: ADME, subcellular, Macaca fascicularis; conditions: s9, 2 h, TDE = time-dependent effect
[12] = Drug metabolism in Sprague-Dawley rat liver S9 fraction assessed as 5-(3-(6-carbamoyl-7-methoxyquinolin-4-ylthio)-1-(carboxymethylamino)-1-oxopropan-2-ylamino)-[…]-5-oxopentanoic acid level at 50 uM up to 60 mins by HPLC analysis in presence of GSH and NADPH; conditions: s9, 1 h
[13] = Drug metabolism in potassium phosphate buffer at pH 7.4 assessed as decrease of parent compound at 50 uM in presence of NAC; format: physicochemical; conditions: pH 7.4, 50 µM
[14] = Drug metabolism in human liver S9 fraction assessed as decrease of parent compound level at 50 uM up to 120 mins by HPLC analysis in presence of GSH and absence of NADPH; format: ADME, tissue-based; conditions: s9, 2 h, TDE = time-dependent effect
[15] = Drug metabolism in Sprague-Dawley rat liver S9 fraction assessed as decrease of parent compound level at 50 uM up to 120 mins by HPLC analysis in presence of GSH and NADPH; format: ADME, subcellular; conditions: s9, 2 h, TDE = time-dependent effect
[16] = Drug metabolism in human liver S9 fraction assessed as decrease of parent compound level at 50 uM up to 120 mins by HPLC analysis in presence of GSH and NADPH; format: ADME, subcellular; conditions: s9, 2 h, TDE = time-dependent effect
[17] = Drug metabolism in Sprague-Dawley rat liver S9 fraction assessed as decrease of parent compound level at 50 uM up to 60 mins by HPLC analysis in presence of GSH and absence of NADPH; conditions: s9, 1 h, TDE = time-dependent effect

Retention_time (Cynomolgus monkey [1]): 13.5 min
Drug metabolism (Cynomolgus monkey [2]): metabolite_detected
Structure (SMILES): COc1cc2nccc(N[C@@H](CSSC[C@H](Nc3ccnc4cc(OC)c(C(N)=O)cc34)C(=O)O)C(=O)O)c2cc1C(N)=O

Retention_time (Cynomolgus monkey [1]): 14.5 min
Drug metabolism (Cynomolgus monkey [2]): metabolite_detected
Structure (SMILES): COc1cc2nccc(N[C@@H](CS)C(=O)O)c2cc1C(N)=O

Retention_time (Cynomolgus monkey [1]): 17.1 min
Drug metabolism (Cynomolgus monkey [2]): metabolite_detected
Structure (SMILES): COc1cc2nccc(N[C@@H](CSc3ccnc4cc(OC)c(C(N)=O)cc34)C(=O)O)c2cc1C(N)=O

Drug metabolism [3]: metabolite_detected
Drug metabolism [4]: metabolite_detected
Drug metabolism [5]: metabolite_detected
Drug metabolism [6]: tde
Drug metabolism [7]: metabolite_detected
Drug metabolism [8]: metabolite_detected
Drug metabolism [9]: metabolite_detected
Retention_time (Cynomolgus monkey [1]): 46.4 min
Drug metabolism [10]: metabolite_detected
Drug metabolism [11]: tde
Drug metabolism [12]: metabolite_detected
Drug metabolism [13]: metabolite_detected
Drug metabolism [14]: tde
Drug metabolism [15]: tde
Drug metabolism [16]: tde
Drug metabolism [17]: tde
Structure (SMILES): COc1cc2nccc(Oc3ccc(NC(=O)NC4CC4)c(Cl)c3)c2cc1C(N)=O.CS(=O)(=O)O [LENVATINIB MESYLATE]
